According to patent publication EP0677293A1, “PHARMACEUTICAL USE OF TERPYRIDINE DERIVATIVE” (priority 1992, dated 1994):
Read-outs that look alike come from different tables or passages of the source.

Key:
[1] = test system: Astroglial cells derived from the mouse forebrain; assay: Synthesis-stimulating activity on NGF (NGF level in culture medium by enzyme immunoassay); format: cell-based; conditions: ratio to DMSO control = 1.0
Protocol: The activity of accelerating secretion of NGF was evaluated by the following method.
Each compound shown in Table 1 was dissolved in dimethylsulfoxide (DMSO) to adjust the concentration in the range of 2 mg/ml to 10 mg/ml.
Astroglial cells derived from the mouse forebrain (cells that synthesize and secrete NGF)
Astroglial cells obtained from the mouse forebrain were cultured into 8 x 10⁵ cells/ml in Dulbecco's modified Eagle's medium obtained from Gibco, glucose-rich, containing 20% fetal calf serum, 100 units/ml of penicillin and 100 µg/ml of streptomycin. A 0.1 ml/well aliquot was inoculated on a 96-well plate obtained from Falcon and having an area of 0.32 cm² per well and cultured at 37°C in an atmosphere of 5% CO₂. The culture medium was removed 72 hours later and instead, a 0.1 ml/well aliquot of fresh Dulbecco's modified Eagle's medium containing 0.5% bovine albumin powders obtained from Armour, 100 units/ml of penicillin and 100 µg/ml of streptomycin was supplemented to the system followed by culturing at 37°C in 5% CO₂. The above medium containing the compound each having various concentrations was exchanged 72 hours later. For the purpose of comparison, the medium which contains only DMSO was also prepared (control).
The synthesis-stimulating activity on NGF by the compound of the present invention is shown in terms of a ratio when the NGF level in the control containing only DMSO was made 1.0.

[2] = test system: both common carotid artery-occlusion model Mongolian gerbils; assay: Test on delayed neuronal death induced by cerebral ischemia (3 min occlusion of both common carotid arteries, histology of hippocampus after 7 days); format: in vivo; conditions: for Incidence Frequency of Neuronal Damage -: score 0 (-), normal neurons; for Incidence Frequency of Neuronal Damage +: score 1 (+), a few neurons damaged; for Incidence Frequency of Neuronal Damage ++: score 2 (++), many neurons damaged; for Incidence Frequency of Neuronal Damage +++: score 3 (+++), majority of neurons damaged
Protocol: Neuronal damages induced by cerebral ischemia was evaluated in the both common carotid artery-occlusion model Mongolian gerbils. Male Monglian gerbils, supplied by Shin Nihon Dobutsu Co., Ltd., Saitama, Japan and weighing 60 to 90 g. The gerbils were anesthetized lightly with ether and placed in the supine position. After local infiltration of xylocaine, both common carotid arteries were exposed through a ventral midline incision. The arteries were then clamped with aneurysm clips for 3 minutes. Thereafter the clips were removed and the skin was sutured. Sham operated animals were treated in the same manner, except that clamping was not done. The animals were anesthetized with ether 7 days after the bilateral common carotid arteries had been occluded for 3 minutes, and the brains were perfused with a 10% buffered formalin solution given through the left cardiac ventricle. The hippocampal region was cut coronally into 3- to 4-mm thick slices, embedded in paraffin and processed using the step section technique. The preparations were stained with hematoxylin and eosin. Ischemic neuronal damage was graded on 4 levels from scores 0 to 3: score 0 (-), normal neurons; score 1 (+), a few neurons damaged (as few as one neuron damaged); score 2 (++), many neurons damaged; and score 3 (+++), majority of neurons damaged. Compounds to be tested were suspended in gum arabic or dissolved in physiological saline, which was intraperitoneally given at determined times in doses of 10 mg/kg to 100 mg/kg, before and after the induced ischemia.

[3] = test system: Cerebral cortical neuronal cells from an 18-day-old rat embryo; assay: Test on neurotrophic activity (living cells counted by fluorescein diacetate fluorescence, with or without hypoxic load); format: cell-based
Protocol: The neurotrophic activity was determined by the following method. Each compound was dissolved in DMSO to adjust the concentration in the range of 2 mg/ml to 10 mg/ml. Cerebral cortical neuronal cells from an 18-day-old rat embryo […] After 24 hours of incubation, the culture medium was removed and a 0.5 ml/well aliquot of a serum-free fresh DF medium containing the respective compounds having various concentrations, 5 µg/ml of transferrin, 5 µg/ml of insulin and 20 pmoles/ml of progesterone was supplemented to the system. For the purpose of comparison, the medium containing only DMSO was added was also prepared. At this stage, the two same plates were used. After 72 hours of incubation in various medium, hypoxia was loaded on one plate by reducing the concentration of oxygen to the minimum concentration of 1% using a N₂-O₂-CO₂ incubator (manufactured by Tabai, Model BNP-100) and culturing for 4 hours under the conditions. Another plate was cultured in an atmosphere of 5% CO₂ and 95% air, without hypoxic load. After the incubation was continued for further 48 hours, living cells were counted. The culture medium was removed and fluorescein diacetate (FDA) reagent was reacted. After washing with phosphate buffer, pH 7.4, the fluorescent intensity (E x 485/Em 530) was measured by CytoFlour^TM 2300, manufactured by Millipore.

[4] = dose 100 mg/kg, intraperitoneally, immediately after ischemia
[5] = no hypoxic load, ratio of fluorescent intensity to DMSO control = 1.0, read-out: Neurotrophic Activity No Hypoxic Load
[6] = 4 h, hypoxic load (1% oxygen, 4 hours), ratio of fluorescent intensity to DMSO control = 1.0, read-out: Neurotrophic Activity Hypoxic Load
[7] = dose 100 mg/kg, intraperitoneally, before 30 mins
[8] = dose 10, intraperitoneally, 30 mins after ischemia
[9] = dose 10, intraperitoneally, 1 hour after ischemia
[10] = dose 10, intraperitoneally, immediately after ischemia

SMILES | fold induction at 100 µg/mL ([1]; Mus musculus, 24 h, 100 µg/ml) | Incidence Frequency of Neuronal Damage - [2, 4] [%] | Incidence Frequency of Neuronal Damage + [2, 4] [%] | Incidence Frequency of Neuronal Damage ++ [2, 4] [%] | Incidence Frequency of Neuronal Damage +++ [2, 4] [%] | fold induction at 10 µg/mL ([1]; Mus musculus, 24 h) | fold induction at 30 µg/mL ([1]; Mus musculus, 24 h) | viability at 2 µg/mL [3, 5] [%] | viability at 10 µg/mL [3, 5] [%] | viability at 2 µg/mL [3, 6] [%] | viability at 10 µg/mL [3, 6] [%] | further results
Cc1ccc(-c2cc(-c3ccccn3)nc(-c3ccccn3)c2)cc1 [Compound 5, 4'-(4-Methylphenyl)-2,2':6',2''-terpyridine] | 9.8 | 25 | 50 | 0 | 25 | – | – | – | – | – | – | fold induction at 20 µg/mL ([1]; Mus musculus, 24 h, 20 µg/ml): 10.1
CCCCCCCCCCCCCCCCC(CCCCCCCCCCCCCCCC)c1cc[n+](Cc2ccc(-c3cc(-c4ccccn4)nc(-c4ccccn4)c3)cc2)cc1.[Br-] [Compound 29, 4-(1-Hexadecylheptadecyl)-1-[4-(2,2':6',2''-terpyridin-4'-yl)phenylmethyl]pyridinium bromide] | 13 | – | – | – | – | 2 | 7.6 | 610 | 570 | 500 | 300 | fold induction at 3 µg/mL ([1]; Mus musculus, 24 h, 3 µg/ml): 1; Incidence Frequency of Neuronal Damage - [2, 7]: 42.9%; Incidence Frequency of Neuronal Damage + [2, 7]: 14.3%; Incidence Frequency of Neuronal Damage ++ [2, 7]: 14.3%; Incidence Frequency of Neuronal Damage +++ [2, 7]: 28.6%
c1ccc(-c2cc(-c3ccncc3)cc(-c3ccccn3)n2)nc1 [Compound 30, 4'-(4-Pyridyl)-2,2':6',2''-terpyridine] | – | 100 | 0 | 0 | 0 | 1.2 | – | 420 | 120 | 530 | 130 | fold induction at 2 µg/mL ([1]; Mus musculus, 24 h, 2 µg/ml, 24 hours, read-out: Synthesis-Stimulating Activity on NGF): 1; fold induction at 50 µg/mL ([1]; Mus musculus, 24 h, 50 µg/ml, 24 hours, read-out: Synthesis-Stimulating Activity on NGF): 1.2
Cc1ccc(-c2cc(-c3ccccn3)nc(-c3ccccn3)c2)cc1.Cl.Cl.Cl [Compound 6, 4'-(4-Methylphenyl)-2,2':6',2''-terpyridin trihydrochloride] | – | – | – | – | – | 2 | 3.3 | – | – | – | – | Synthesis-Stimulating Activity on NGF ([1]; 100 µg/ml, 24 hours): 5.0; damages of the hippocampal CAl neurons ([2]; intraperitoneally given 30 minutes after or an hour after the ischemia had been induced): prevented damages of the hippocampal CAl neurons; Incidence Frequency of Neuronal Damage - [2, 8]: 25%; Incidence Frequency of Neuronal Damage - [2, 9]: 0%; Incidence Frequency of Neuronal Damage - [2, 10]: 0%; Incidence Frequency of Neuronal Damage + [2, 8]: 37.5%; Incidence Frequency of Neuronal Damage + [2, 9]: 50%; Incidence Frequency of Neuronal Damage + [2, 10]: 75%; Incidence Frequency of Neuronal Damage ++ [2, 8]: 12.5%; Incidence Frequency of Neuronal Damage ++ [2, 9]: 25%; Incidence Frequency of Neuronal Damage ++ [2, 10]: 0%; Incidence Frequency of Neuronal Damage +++ [2, 8]: 25%; Incidence Frequency of Neuronal Damage +++ [2, 9]: 25%; Incidence Frequency of Neuronal Damage +++ [2, 10]: 25%
